Data from patent US8158632B2, “Pyrazolo[1,5-a]pyrimidines, processes, uses and compositions” (priority 2006, dated 2012).

Experiments:
HepG2 cells = assay: Cell toxicity (MTS cell viability) in HepG2 cells at 24 h; assay type: cell-based, human; details: HepG2 at 100 μM
Procedure: (§1) d) In Vitro Determination of Cell Toxicity in HepG2, CHO-K1 and HeLa Cells at 24 h
(§2) HepG2 (human hepatocellular carcinoma cells) and CHO-K1 (Chinese hamster ovary cells) were both obtained from the American Type Culture Collection (ATCC). HepG2 were cultured in Minimum Essential Medium (MEM) containing Earl's salts solution with 1.87 mM Glutamax® and supplemented with 1 mM sodium pyruvate, 0.1 mM non-essential amino acids, 100000 U/L penicillin, 100000 μg/L streptomycin and 10% Foetal Bovine Serum. CHO-K1 were maintained in Ham's F-12 medium containing 1 mM Glutamax® and supplemented with 1 mM L-glutamine, 100000 U/L penicillin, 100000 μg/L streptomycin and 10% Foetal Bovine Serum. Promega CellTiter 96® Aqueous One Solution Cell Viability Assay, contains the tetrazolium salt (MTS) that dehydrogenase enzymes found in metabolically active cells turn into the aqueous soluble formazan product. The quantity of formazan product is proportional to the number of living cells in culture.
(§3) Compounds were dissolved in DMSO to achieve an initial concentration of 100 mM. Serial dilutions were made from this stock solution in DMSO to achieve a range of concentrations from 50 to 0.25 mM. The stock solution and serial dilutions were then diluted 1:100 with the respective cell culture medium. In the case of CHO-K1 cells, concentrations at 1000, 500, 250, 100, 50, 25, 10, 5 and 2.5 μM were prepared to assess IC50, whereas in the case of HepG2 cells, final concentrations at 1000, 100, 10 and 1 μM final were assayed in order to calculate the percentage of cell. The final DMSO concentration in all wells was 1% v/v. Cell lines were both incubated with test compounds for 24 hours. Relative cell viability was determined spectro-photometrically at 490 nm following the addition of the MTS dye and further one-hour incubation. Tamoxifen was used as the positive control.

HeLa cells = assay: Cell toxicity in HeLa cells at 24 h; assay type: cell-based; details: HeLa at 100 μM
Procedure: as §1, §3
An analogous protocol was used to determine the cell toxicity in HeLa cells at 24 h.

[1] = Cell toxicity (MTS cell viability) in CHO-K1 cells at 24 h; assay type: cell-based; details: Chinese hamster
Procedure: as §1, §2
Compounds were dissolved in DMSO to achieve an initial concentration of 100 mM. Serial dilutions were made from this stock solution in DMSO to achieve a range of concentrations from 50 to 0.25 mM. […] Relative cell viability was determined spectro-photometrically at 490 nm following the addition of the MTS dye and further one-hour incubation. […]

[2] = system: α1 subunit of the GABAA receptor; assay: Ligand-binding assay, competitive with radiolabeled flumazenil, cerebellum membranes; details: 1 nM radiolabeled flumazenil, rat cerebellum membranes; for % inhib 10^−5M: 10^−5M compound; for % inhib 10^−7M: 10^−7M compound
Procedure: (§4) a) Ligand-Binding Assays. Determination of the Affinity of Test Compounds for α1- and α2-GABAA Receptor
(§5) Male Sprague-Dawley rats weighing 200-250 g at the time of experiment were used. After decapitation of the animal, the cerebellum (tissue that mostly contains α1-GABAA receptor) and spinal cord (tissue that mostly contains α2-GABAA receptor) were removed. The membranes were prepared according to the method by J. Lameh et al. (Prog. Neuro-Psychopharmacol. Biol. Psychiatry, 24, 979-991, 2000) and H. Noguchi et al. (Eur. J. Pharm., 434, 21-28, 2002) with slight modifications. Once the tissues weighed, they were suspended in 50 mM Tris.HCl (pH 7.4), 1:40 (v/v), or sucrose 0.32 M in the case of spinal cord, homogenized and then centrifuged at 20000 g for 10 min at 7° C. The resulting pellet was resuspended under the same conditions and centrifuged again. The pellet was finally resuspended on a minimum volume and kept at −80° C. overnight. On the next day, the process was repeated until the final pellet was resuspended at a ratio of 1:10 (v/v) in the case of cerebellum and at a ratio of 1:5 (v/v) in the case of spinal cord.
Affinity was determined by competitive tests using radiolabeled flumazenil as ligand. The tests were performed according to the methods described by S. Arbilla et al. (Eur. J. Pharmacol., 130, 257-263, 1986); and Y. Wu et al. (Eur. J. Pharmacol., 278,125-132, 1995) using 96-well microtiter plates. The membranes containing the study receptors, flumazenil (radiolabeling at a final concentration of 1 nM) and ascending concentrations of test compounds (in a total volume of 230 μL in 50 mM [ph 7.4] Tris.HCl buffer) were incubated. Simultaneously, the membranes were only incubated with the radiolabeled flumazenil (total binding, 100%) and in the presence of an elevated concentration of unradiolabeled flumazenil (non-specific binding, % estimation of radiolabeled ligand). The reactions started on adding the radiolabeled ligand followed by incubation for 60 minutes at 4° C. At the end of the incubation period, 200 μL of reaction were transferred to a multiscreen plate (Millipore) and filtered using a vacuum manifold and then washed three times with cold test buffer. The multiscreen plates were equipped with a GF/B filter that retained the membranes containing the receptors and the radiolabeled ligand which had been bound to the receptors. After washing, the plates were left till dry. Once dried, scintillation liquid was added and left under stirring overnight. The next day the plates were counted using a Perkin-Elmer Microbeta scintillation counter.
(§6) For analysis of the results the percentage of specific binding for every concentration of test compound was calculated as follows: % specific binding=(X−N/T−N)×100 where, • X: amount of bound ligand for every concentration of compound. • T: total binding, maximum amount bound to the radiolabeled ligand. • N: non-specific binding, amount of radiolabeled ligand bound in a non-specific way irrespective of the receptor used.
(§7) Every concentration of compounds was tested in triplicate and their mean values were used to determine the experimental values of % specific binding versus the concentration of compound. Affinity data are expressed as % inhibition at 10^−5M and 10^−7M concentrations for α1 subunit and at 10^-5M for α2 subunit.

[3] = system: α2 subunit of the GABAA receptor; assay: Ligand-binding assay, competitive with radiolabeled flumazenil, spinal cord membranes; details: 10^−5M compound; 1 nM radiolabeled flumazenil; rat spinal cord membranes
Procedure: as §4, §5
Affinity was determined by competitive tests using radiolabeled flumazenil as ligand. The tests were performed according to the methods described by S. Arbilla et al. (Eur. J. Pharmacol., 130, 257-263, 1986); and Y. Wu et al. (Eur. J. Pharmacol., 278,125-132, 1995) using 96-well microtiter plates. The membranes containing the study receptors, flumazenil (radiolabeling at a final concentration of 1 nM) and ascending concentrations of test compounds (in a total volume of 230 μL in 50 mM [ph 7.4] Tris.HCl buffer) were incubated. Simultaneously, the membranes were only incubated with the radiolabeled flumazenil (total binding, 100%) and in the presence of an elevated concentration of unradiolabeled flumazenil (non-specific binding, % estimation of radiolabeled ligand). […] The next day the plates were counted using a Perkin-Elmer Microbeta scintillation counter.
as §6, §7

mice = assay: In vivo predictive sedation-hypnosis test (traveled distance); details: male CD1 mice; for % inhib motor activity: 98 μmol/kg ip, traveled distance over 30 min (first 5 min discarded) vs control
Procedure: b) In Vivo Determination of Predictive Sedative-Hypnotic Action
The in vivo effects of these compounds were assessed by a predictive sedation-hypnosis test in mice (D. J. Sanger et al., Eur. J. Pharmacol., 313, 35-42, 1996; and G. Griebel et al., Psychopharmacology, 146, 205-213, 1999).
Groups of 5-8 male CD1 mice, weighing 22-26 g at the time of test, were used. The test compounds were administered in single equimolecular intraperitoneal doses, suspended in 0.25% agar with one drop of Tween 80 in a volume of 10 mL/kg. Two doses were tested in each route. Control animals received the vehicle alone. Using a Smart System (Panlab, S. L., Spain) the traveled distance in cm is recorded for each mouse at 5-min intervals during a period of 30 minutes after intraperitoneal (ip) dosing. The inhibition percentage of traveled distance of treated animals versus control animals (the first 5 min were discarded) and ED50 values were calculated.

[4] = Metabolic stability in human hepatocytes cytosolic fraction; assay type: in vitro ADME; details: 5 μM compound, 1.0 mg/mL pooled human cytosol, 37° C.
Procedure: c) In Vitro Determination of Metabolic Stability in Human Hepatocytes Cytosolic Fraction
Compounds were dissolved in dimethyl sulfoxide to achieve an initial concentration of 10 mM. This stock solution was then diluted with solvent and buffer to obtain final assay concentration of 5 μM. Compounds were tested at a single concentration of 5 μM in duplicate incubating with 1.0 mg/mL of pooled human cytosol (obtained from Xenotech plc) at 37° C. Metabolism was assessed in the presence or absence of cofactors and measured as loss of parent compound by LC/MS analysis at 0, 60 and 120-minutes time points. Percentages of remaining parent compounds were then calculated.

## CC(=O)N(C)c1cccc(-c2ccnc3c(C(=O)c4cccs4)cnn23)c1 [Example 1 of US 6399621 (indiplon), N-{3-[3-(thiophene-2-carbonyl)-pyrazolo[1,5-a]pyrimidin-7-yl]-phenyl}-N-methyl-acetamide, reference compound]
HepG2 cells
  % of cell viability: 70%
HepG2 cells; listed as indiplon
  % of cell viability: 70%
HeLa cells
  % of cell viability: 67.9%
[1]
  IC50 at 24 h: 108 µM

## CN(c1cc(-c2ccnc3c([N+](=O)[O-])cnn23)ccc1F)S(C)(=O)=O [Preparative example 5, N-{2-fluoro-5-[3-nitro-pyrazolo[1,5-a]pyrimidin-7-yl]-phenyl}-N-methyl-methanesulfonamide]
[2]
  % inhib 10^−5M: 98.2%
  % inhib 10^−7M: 42.3%
[3]
  % inhib 10^−5M: 94.5%
mice
  % inhib motor activity: 89.0%

## CN(c1cc(-c2ccnc3c(C#N)cnn23)ccc1F)S(C)(=O)=O [Preparative example 6, N-{2-fluoro-5-[3-cyano-pyrazolo[1,5-a]pyrimidin-7-yl]-phenyl}-N-methyl-methanesulfonamide]
[2]
  % inhib 10^−5M: 98.1%
  % inhib 10^−7M: 36.4%
[3]
  % inhib 10^−5M: 87.5%
mice
  % inhib motor activity: 76.3%
[4]; 60 min
  % of Parent: 86%
[4]; 120 min
  % of Parent: 81%

## Cc1nn2c(-c3ccc(F)c(N(C)S(C)(=O)=O)c3)ccnc2c1C#N [Preparative example 11, N-{2-fluoro-5-[3-cyano-2-methyl-pyrazolo[1,5-a]pyrimidin-7-yl]-phenyl}-N-methyl-methanesulfonamide]
[2]
  % inhib 10^−5M: 97.7%
  % inhib 10^−7M: 41.8%
[3]
  % inhib 10^−5M: 95.0%
mice
  % inhib motor activity: 83.8%
mice; Mus musculus, ip, read-out: ED50 in inducing sedation
  ED50: 16.9 µmol/kg
[4]; 60 min
  % of Parent: 88%
[4]; 120 min
  % of Parent: 82%
HepG2 cells
  % of cell viability: 84.5%
HepG2 cells; listed as example 11
  % of cell viability: 84.5%
HeLa cells
  % of cell viability: 83.9%
[1]
  IC50 at 24 h: 186 µM

## CC(=O)N(C)c1cc(-c2ccnc3c(C(=O)c4cccs4)cnn23)ccc1C [Preparative example 13, N-{2-methyl-5-[3-(thiophene-2-carbonyl)-pyrazolo[1,5-a]pyrimidin-7-yl]-phenyl}-N-methyl-acetamide]
[2]
  % inhib 10^−5M: 98.7%
  % inhib 10^−7M: 39.8%
mice
  % inhib motor activity: 95.6%

## COc1ccc(-c2ccnc3c(C(=O)c4cccs4)cnn23)cc1N(C)C(C)=O [Preparative example 14, N-{2-methoxy-5-[3-(thiophene-2-carbonyl)-pyrazolo[1,5-a]pyrimidin-7-yl]-phenyl}-N-methyl-acetamide]
[2]
  % inhib 10^−5M: 97.3%
  % inhib 10^−7M: 31.9%
mice
  % inhib motor activity: 89.6%

## CCN(C(C)=O)c1cccc(-c2ccnc3c(C#N)cnn23)c1 [Zaleplon, reference compound]
[3]
  % inhib 10^−5M: 77.4%
mice
  % inhib motor activity: 84.9%
